Assay results published in paper PMC9516332 (Frontiers in Oncology, 2022).
Like-named read-outs stand apart in the source and are kept apart here.

Assays:
Experiment in all cases: Kinase panel profiling at 1 µmol/L (MSA or IMAP), percentage inhibition
Format in all cases: biochemical
[1] = biological target: T1, panel of 255 wild-type kinases (Homo sapiens, UniProt Q13043); details: read-out: %-inhibition, MST1
T1 sequence (Q13043 1-487): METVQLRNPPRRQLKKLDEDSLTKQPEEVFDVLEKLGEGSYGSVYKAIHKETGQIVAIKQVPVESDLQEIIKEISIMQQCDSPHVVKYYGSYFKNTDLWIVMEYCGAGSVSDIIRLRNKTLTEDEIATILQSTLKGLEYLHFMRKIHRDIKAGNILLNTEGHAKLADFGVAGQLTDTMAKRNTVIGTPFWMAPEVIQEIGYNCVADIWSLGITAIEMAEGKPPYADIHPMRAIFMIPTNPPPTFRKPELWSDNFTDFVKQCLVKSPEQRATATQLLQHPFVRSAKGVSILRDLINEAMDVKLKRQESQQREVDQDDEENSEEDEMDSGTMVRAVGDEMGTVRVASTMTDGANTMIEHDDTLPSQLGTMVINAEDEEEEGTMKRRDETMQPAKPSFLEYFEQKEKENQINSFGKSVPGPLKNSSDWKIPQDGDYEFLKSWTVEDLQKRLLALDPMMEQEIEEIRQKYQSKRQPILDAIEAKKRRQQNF

[2] = biological target: panel of 255 wild-type kinases (Homo sapiens, UniProt P51451); details: read-out: %-inhibition BLK
[3] = biological target: panel of 255 wild-type kinases (Homo sapiens, UniProt Q04759); details: read-out: %-inhibition at 1 µmol/L, PKCθ
[4] = biological target: T2, panel of 255 wild-type kinases (Homo sapiens, UniProt Q13188); details: read-out: %-inhibition, MST2
T2 sequence (Q13188 1-491): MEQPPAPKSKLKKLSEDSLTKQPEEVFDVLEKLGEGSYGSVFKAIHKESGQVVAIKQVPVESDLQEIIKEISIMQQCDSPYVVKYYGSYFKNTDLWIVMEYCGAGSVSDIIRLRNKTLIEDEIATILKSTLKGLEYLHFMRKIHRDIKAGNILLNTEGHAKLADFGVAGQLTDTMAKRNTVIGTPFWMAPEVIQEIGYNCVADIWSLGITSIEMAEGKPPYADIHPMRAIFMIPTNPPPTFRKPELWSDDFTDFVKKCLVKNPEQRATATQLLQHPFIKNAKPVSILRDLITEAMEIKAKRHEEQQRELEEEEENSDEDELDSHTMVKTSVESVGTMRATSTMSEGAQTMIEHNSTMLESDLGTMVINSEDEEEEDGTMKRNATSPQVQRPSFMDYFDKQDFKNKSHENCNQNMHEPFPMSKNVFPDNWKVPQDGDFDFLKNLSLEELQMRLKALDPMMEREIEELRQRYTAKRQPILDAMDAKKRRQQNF

[5] = biological target: panel of 255 wild-type kinases (Homo sapiens, UniProt Q8TDX7); details: read-out: %-inhibition, NEK7
[6] = biological target: panel of 255 wild-type kinases (Homo sapiens, UniProt Q13153); details: read-out: %-inhibition, PAK1
[7] = biological target: T3, panel of 255 wild-type kinases (Homo sapiens, UniProt O15530); details: read-out: %-inhibition at 1 µmol/L, PDK1
T3 sequence (O15530 1-556): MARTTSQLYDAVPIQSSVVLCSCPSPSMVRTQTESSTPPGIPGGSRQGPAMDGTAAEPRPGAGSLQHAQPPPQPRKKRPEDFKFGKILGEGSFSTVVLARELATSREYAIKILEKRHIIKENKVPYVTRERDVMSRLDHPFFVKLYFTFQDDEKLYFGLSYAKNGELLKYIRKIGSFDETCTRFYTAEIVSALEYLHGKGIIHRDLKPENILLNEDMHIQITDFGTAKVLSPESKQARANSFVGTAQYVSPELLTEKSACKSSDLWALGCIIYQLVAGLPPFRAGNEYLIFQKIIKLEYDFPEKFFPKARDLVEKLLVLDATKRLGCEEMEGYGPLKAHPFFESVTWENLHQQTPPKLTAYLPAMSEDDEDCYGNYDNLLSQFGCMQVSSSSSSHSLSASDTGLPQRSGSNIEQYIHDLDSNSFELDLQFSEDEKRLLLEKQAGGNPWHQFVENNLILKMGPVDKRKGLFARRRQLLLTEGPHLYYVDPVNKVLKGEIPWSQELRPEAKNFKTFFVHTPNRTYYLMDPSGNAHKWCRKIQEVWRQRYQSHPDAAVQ

[8] = MST1, 1 µmol/L single concentration
[9] = BLK kinase assay, 1 µmol/L single concentration
[10] = kinase PKCθ, 1 µmol/L single concentration
[11] = MST2, 1 µmol/L single concentration
[12] = NEK7, 1 µmol/L single concentration
[13] = PAK1, 1 µmol/L single concentration
[14] = kinase PDK1, 1 µmol/L single concentration

Row | SMILES | inhibition at 1 µM [1, 8] | inhibition at 1 µM [2, 9] | inhibition at 1 µM [3, 10] | inhibition at 1 µM [4, 11] | inhibition at 1 µM [5, 12] | inhibition at 1 µM [6, 13] | inhibition at 1 µM [7, 14] | inhibition at 1 µM [1] | inhibition at 1 µM [2] | inhibition at 1 µM [3] | inhibition at 1 µM [4] | inhibition at 1 µM [5] | inhibition at 1 µM [6] | inhibition at 1 µM [7]
1 | Cc1nc(NC(=O)N2CCC[C@H]2C(N)=O)sc1-c1ccnc(C(C)(C)C(F)(F)F)c1 [alpelisib] | 5% | -13% | -0.212% | 1.52% | 0.399% | -3.29% | -0.422% |  |  |  |  |  |  | 
2 | Cn1cc(-c2cc3c(N4CCN(c5ncc([C@@](C)(N)c6ccc(F)cc6)cn5)CC4)ncnn3c2)cn1 [avapritinib] | 5.32% | 50% | 2.6% | 0.434% | -11% | 0.845% | 6.57% |  |  |  |  |  |  | 
3 | Cn1cnc2c(F)c(Nc3ccc(Br)cc3F)c(C(=O)NOCCO)cc21 [binimetinib] | -6.46% | 10% | -2.27% | -1.64% | 2% | 5% | 0.386% |  |  |  |  |  |  | 
4 | CNC(=O)c1ccc(-c2cnc3ncc(Cc4ccc5ncccc5c4)n3n2)cc1F [capmatinib] |  |  |  |  |  |  |  | -2% | -4% | -5.31% | -3.3% | -9% | 4.66% | 4%
5 | COc1cc2ncnc(Nc3ccc(F)c(Cl)c3)c2cc1NC(=O)/C=C/CN1CCCCC1 [dacomitinib] | 2.73% | 77% | 1.57% | 2% | -4.37% | 0.38% | -7% |  |  |  |  |  |  | 
6 | C[C@H](Nc1ncnc2nc[nH]c12)c1cc2cccc(Cl)c2c(=O)n1-c1ccccc1 [duvelisib] | 10% | -12% | 1.09% | 4% | -0.791% | -0.68% | 2.42% |  |  |  |  |  |  | 
7 | COC(=O)N[C@@H](C)CNc1nccc(-c2cn(C(C)C)nc2-c2cc(Cl)cc(NS(C)(=O)=O)c2F)n1 [encorafenib] | 0.835% | 10% | 2% | 3% | 5% | 12% | -2.17% |  |  |  |  |  |  | 
8 | CN1CCN(c2ccc(C(=O)Nc3n[nH]c4ccc(Cc5cc(F)cc(F)c5)cc34)c(NC3CCOCC3)c2)CC1 [entrectinib] | 92% | 86% | 10% | 35% | -1.81% | -10% | 0.207% |  |  |  |  |  |  | 
9 | CCc1nc(C(N)=O)c(Nc2ccc(N3CCC(N4CCN(C)CC4)CC3)c(OC)c2)nc1NC1CCOCC1 [gilteritinib] | 92% | 94% | 12% | 14% | -2% | 4% | -1.87% |  |  |  |  |  |  | 
10 | CCN1CCN(c2ccc(Nc3cc(N(C)C(=O)Nc4c(Cl)c(OC)cc(OC)c4Cl)ncn3)cc2)CC1 [infigratinib] | 1.11% | 21% | -3% | -2.14% | -3.65% | 5% | 1.36% |  |  |  |  |  |  | 
